The values that follow come from ChEMBL document CHEMBL4725297, “The discovery and evaluation of 3-amino-2(1H)-pyrazinones as a novel series of selective p38α MAP kinase inhibitors” (Bioorg Med Chem Lett, 2020).

A word on the logD: it is lipophilicity at a set pH, counting ionised and neutral species. In general, solubility refers to the concentration that dissolves in the medium under given conditions. A word on the clearance: it is a measure of how efficiently the substance is removed, as volume per time. As a reminder, the half-life is the time in which the quantity being followed falls by half. Read a low half-life as fast loss. What is called pKa is the pH at which an ionisable group is half protonated. For orientation: bioavailability means dose-corrected exposure relative to a reference, in per cent. By Papp is commonly meant the rate of passage across a membrane or cell layer, normalised by area and donor concentration.

Values after ≈ are worked out from the molar mass of the structure shown.

Data set [1] is described as follows: Distribution coefficient, logD of the compound at pH 7.4. Format: physicochemical. The conditions noted are these: octanol/water.
A short description of data set [2]: Aqueous solubility of the compound at pH 7.4. It is filed as physicochemical. The conditions noted are these: buffer.
Data set [3] in a line: Intrinsic clearance in rat hepatocytes assessed per 10^6 cells. Format: ADME, cell-based, Hepatocyte. To be noted: read-out: CLH.
Data set [4] can be described thus: Clearance in iv dosed rat. Format: ADME, organism-based. To be noted: in vivo.
A short description of data set [5]: Volume of distribution at steady state in iv dosed rat. It is filed as ADME, organism-based. The conditions noted are these: in vivo, read-out: Vdss.
A short description of data set [6]: Half life in iv dosed rat. It is filed as ADME, organism-based. The conditions noted are these: in vivo.
Data set [7] can be described thus: Acid dissociation constant, pKa of the compound. It is filed as physicochemical.
Data set [8] can be described thus: Oral bioavailability in rat. It is filed as ADME, organism-based. The conditions noted are these: in vivo.
A short description of data set [9]: Clearance in iv dosed dog. Format: ADME, organism-based, Canis lupus familiaris. The conditions noted are these: in vivo.
The nature of data set [10]: Volume of distribution at steady state in iv dosed dog. To be noted: in vivo, read-out: Vdss. Format: ADME, organism-based, Canis lupus familiaris.
The nature of data set [11]: Half life in iv dosed dog. It is filed as ADME, organism-based, Canis lupus familiaris. The conditions noted are these: in vivo.
Data set [12] is described as follows: Apparent permeability of the compound by PAMPA. It is filed as ADME. Background: The PAMPA barrier holds no transporters, so it reflects passive diffusion.
Data set [13] is described as follows: Clearance in iv dosed rat relative to hepatic blood flow. It is filed as ADME, organism-based. To be noted: in vivo.
A short description of data set [14]: Clearance in iv dosed dog relative to hepatic blood flow. To be noted: in vivo. Format: ADME, organism-based, Canis lupus familiaris.

The compound `Cc1ccc(C(=O)NC2CC2)cc1-n1ccnc(NC2CC2)c1=O` showed a logD in [1] of 1.5. In addition, in data set [2] (read-out: solubility), the solubility is greater than 1000 µM. Moreover, in data set [3], the hepatocyte CLint is less than 1 µL/min/1e6 cells.
For `Cc1ccc(C(=O)NC2CC2)cc1-n1ccnc(NCc2ccccc2)c1=O` the same measures were 2.6, 23 µM (≈ 8.61 µg/mL) and 4.5 µL/min/1e6 cells.
For the compound `COc1ccc(CNc2nccn(-c3cc(C(=O)NC4CC4)ccc3C)c2=O)cc1`, in [1], the logD turned out to be 2.9. The solubility in data set [2] (read-out: solubility) is less than 19 µM. In addition, the hepatocyte CLint in data set [3] worked out at 3.4 µL/min/1e6 cells.
In [1], `Cc1ccc(C(=O)NC2CC2)cc1-n1ccnc(N[C@@H](c2ccccc2)[C@@H](C)CN(C)C)c1=O` registered a logD of 2. In addition, the solubility in data set [2] (read-out: solubility) is 843 µM (≈ 387 µg/mL). For the same compound, the hepatocyte CLint in data set [3] came to 18 µL/min/1e6 cells.
With `Cc1ccc(C(=O)NC2CC2)cc1-n1ccnc(N[C@@H](c2ccccc2)[C@@H](C)CN2CCN[C@@H](C)C2)c1=O`, the logD in [1] was found to be 1.5. Moreover, in data set [2] (read-out: solubility), the solubility was determined as 783 µM (≈ 403 µg/mL). For the same compound, the hepatocyte CLint in data set [3] stood at 14 µL/min/1e6 cells.
In [1], `Cc1ccc(C(=O)NC2CC2)cc1-n1ccnc(NCCc2ccccc2)c1=O` came in with a logD of 3. Further, the solubility in [2] (read-out: solubility) was determined as 392 µM (≈ 152 µg/mL). The hepatocyte CLint in data set [3] stood at 130 µL/min/1e6 cells.
Turning to `Cc1ccc(C(=O)NC2CC2)cc1-n1ccnc(N[C@H](C)c2ccccc2)c1=O`, in data set [1], the logD was 2.9. In addition, the solubility in data set [2] (read-out: solubility) was found to be 734 µM (≈ 285 µg/mL). In addition, in data set [3], the hepatocyte CLint was determined as 17 µL/min/1e6 cells.
`Cc1ccc(C(=O)NC2CC2)cc1-n1ccnc(N[C@@H](C)c2ccccc2)c1=O` yielded a log distribution coefficient (logD) in data set [1] of 3.1. Besides, the solubility in data set [2] (read-out: solubility) stood at 50 µM (≈ 19.4 µg/mL). Further, the hepatocyte CLint in data set [3] was less than 3 µL/min/1e6 cells.
Regarding `Cc1ccc(C(=O)NC2CC2)cc1-n1ccnc(N[C@@H](c2ccccc2)[C@@H](C)CO)c1=O`, the logD in data set [1] amounted to 2.6. The solubility in data set [2] (read-out: solubility) turned out to be 870 µM (≈ 376 µg/mL). Also, in [3], the hepatocyte CLint turned out to be 19 µL/min/1e6 cells.
For the compound `Cc1ccc(C(=O)NC2CC2)cc1-n1ccnc(N[C@@H](c2ccccc2)[C@@H](C)CN2CCN(C)CC2)c1=O`, the logD in [1] came to 2.3. The solubility in data set [2] (read-out: solubility) is 854 µM (≈ 440 µg/mL). Besides, in data set [3], the hepatocyte CLint came to 30 µL/min/1e6 cells.
Take `Cc1ccc(C(=O)NC2CC2)cc1-n1ccnc(N)c1=O`: the log distribution coefficient (logD) in [1] was determined as 0.4.
Take `Cc1ccc(C(=O)NC2CC2)cc1-n1ccnc(NCc2ccccc2OCCN2CCCC2)c1=O`: the logD in data set [1] turned out to be 1.6. Also, the solubility in [2] (read-out: solubility) came out at 670 µM (≈ 327 µg/mL). Further, in data set [3], the hepatocyte CLint came out at 55 µL/min/1e6 cells.
In data set [1], `Cc1ccc(C(=O)NC2CC2)cc1-n1ccnc(NC(C)(C)c2ccccc2OCCN2CCCC2)c1=O` registered a logD of 2.3. Further, the solubility in [2] (read-out: solubility) is greater than 1000 µM. For the same compound, the hepatocyte CLint in data set [3] worked out at 157 µL/min/1e6 cells. The compound further displayed a clearance in [4] of 99 mL/min/kg. Besides, the Vd in data set [5] was 16.6 L/kg. Moreover, in data set [6], the half-life was 8 h.
Turning to `Cc1ccc(C(=O)NC2CC2)cc1-n1ccnc(N[C@@H]2CCCc3ccccc32)c1=O`, the logD in data set [1] was determined as 3.7. In addition, the solubility in data set [2] (read-out: solubility) was determined as 168 µM (≈ 69.6 µg/mL). Moreover, the hepatocyte CLint in data set [3] was 140 µL/min/1e6 cells.
Compound `Cc1ccc(C(=O)NC2CC2)cc1-n1ccnc(N[C@@H](c2ccccc2)[C@@H](C)CN2CCCCC2)c1=O` showed a logD in data set [1] of 3. Further, the solubility in [2] (read-out: solubility) was 908 µM (≈ 454 µg/mL). Further, the hepatocyte CLint in data set [3] came out at 61 µL/min/1e6 cells. In [4], this compound returned a clearance of 50 mL/min/kg. Moreover, the Vd in data set [5] came to 5.5 L/kg. The compound further gave a half-life in data set [6] of 7.8 h. Also, the pKa in data set [7] is 8.4.
As to `Cc1ccc(C(=O)NC2CC2)cc1-n1ccnc(N[C@@H](c2ccccc2)[C@@H](C)CN2CCNCC2)c1=O`, the logD in [1] was 1.3. Also, the solubility in data set [2] (read-out: solubility) was found to be 636 µM (≈ 318 µg/mL). Besides, the hepatocyte CLint in data set [3] was 15 µL/min/1e6 cells.
In data set [1], `Cc1ccc(C(=O)NC2CC2)cc1-n1ccnc(NCC2CCCCC2)c1=O` registered a log distribution coefficient (logD) of 3.7. For the same compound, in data set [2] (read-out: solubility), the solubility is 340 µM (≈ 129 µg/mL). The hepatocyte CLint in data set [3] stood at 7.6 µL/min/1e6 cells.
The corresponding values for `Cc1ccc(C(=O)NC2CC2)cc1-n1ccnc(N[C@@H](c2ccccc2)[C@@H](C)CN2CCN[C@H](C)C2)c1=O` are 1.6, 847 µM (≈ 436 µg/mL) and 8.5 µL/min/1e6 cells.
`Cc1ccc(C(=O)NC2CC2)cc1-n1ccnc(NC(C)(C)c2ccccc2)c1=O` registered a logD in data set [1] of 3.1. In addition, the hepatocyte CLint in [3] came out at 19 µL/min/1e6 cells.
Consider `CC[C@@H](Nc1nccn(-c2cc(C(=O)NC3CC3)ccc2C)c1=O)c1ccccc1`, for which the logD in data set [1] stood at 3.3. Besides, the solubility in data set [2] (read-out: solubility) worked out at 270 µM (≈ 109 µg/mL). Moreover, the hepatocyte CLint in data set [3] is 26 µL/min/1e6 cells.
For the compound `Cc1ccc(C(=O)NC2CC2)cc1-n1ccnc(N(C)Cc2ccccc2)c1=O`, the logD in data set [1] was found to be 3.2. Further, the solubility in [2] (read-out: solubility) amounted to 54 µM (≈ 21 µg/mL). Moreover, the hepatocyte CLint in data set [3] came out at 59 µL/min/1e6 cells.
`CC[C@@H](Nc1nccn(-c2cc(C(=O)NC3CC3)ccc2C)c1=O)c1ccccc1OCCN1CCCC1` registered a logD in [1] of 2.3. The solubility in data set [2] (read-out: solubility) was 800 µM (≈ 413 µg/mL). Besides, the hepatocyte CLint in data set [3] is 35 µL/min/1e6 cells.
In data set [1], `COc1cccc(CNc2nccn(-c3cc(C(=O)NC4CC4)ccc3C)c2=O)c1` gave a logD of 2.7. Moreover, the solubility in [2] (read-out: solubility) was 351 µM (≈ 142 µg/mL). Also, the hepatocyte CLint in data set [3] was found to be 7.4 µL/min/1e6 cells.
For `Cc1ccc(C(=O)NC2CC2)cc1-n1ccnc(N[C@@H](c2ccccc2)[C@@H](C)CN2CCOCC2)c1=O` the same measures were 3.5, 216 µM (≈ 108 µg/mL) and greater than 300 µL/min/1e6 cells.
`COc1ccccc1CNc1nccn(-c2cc(C(=O)NC3CC3)ccc2C)c1=O`: the solubility in data set [2] (read-out: solubility) came to 258 µM (≈ 104 µg/mL). Moreover, in data set [3], the hepatocyte CLint worked out at 22 µL/min/1e6 cells.
In [1], `CNCCOc1ccccc1C(C)(C)Nc1nccn(-c2cc(C(=O)NC3CC3)ccc2C)c1=O` yielded a logD of 1.6. The solubility in [2] (read-out: solubility) was 650 µM (≈ 309 µg/mL). The hepatocyte CLint in data set [3] was found to be 20 µL/min/1e6 cells. Besides, the clearance in [4] came to 59 mL/min/kg; in data set [9], 16.5 mL/min/kg. The Vd came to 31.6 L/kg in data set [5] and 6.4 L/kg in data set [10]. Further, the half-life was 13 h in data set [6] and 6.6 h in data set [11]. The bioavailability in data set [8] was 6%. Further, the Papp in [12] was determined as 4.2 ×10⁻⁶ cm/s. In data set [7], this compound had a pKa of 9.1. For the same compound, the figures for the CL in data set [13] and in data set [14] were 69% and 54%, respectively.
`Cc1ccc(C(=O)NC2CC2)cc1-n1ccnc(Nc2ccccc2)c1=O` displayed a logD in [1] of 3. In addition, the solubility in data set [2] (read-out: solubility) was 405 µM (≈ 146 µg/mL). Further, the hepatocyte CLint in [3] came to 3.3 µL/min/1e6 cells.
In turn, `CNc1nccn(-c2cc(C(=O)NC3CC3)ccc2C)c1=O` gave a logD in data set [1] of 1.1. Besides, the solubility in data set [2] (read-out: solubility) was greater than 1000 µM. The hepatocyte CLint in data set [3] was 1.1 µL/min/1e6 cells.
As to `Cc1ccc(C(=O)NC2CC2)cc1-n1ccnc(N2CCCC2c2ccccc2)c1=O` (racemic), the logD in [1] was found to be 3.3. Moreover, the solubility in data set [2] (read-out: solubility) came to 344 µM (≈ 143 µg/mL). Also, the hepatocyte CLint in [3] was 120 µL/min/1e6 cells.
Regarding `Cc1ccc(C(=O)NC2CC2)cc1-n1cnc2ccc(N3CCN(C)CC3)cc2c1=O` [AZD-6703], in data set [2], the solubility worked out at 730 µM (≈ 305 µg/mL). In addition, the hepatocyte CLint in data set [3] is less than 3 µL/min/1e6 cells. This compound showed a half-life in data set [6] of 0.7 h.
